ChEMBL document CHEMBL1914333, “Synthesis and evaluation of compounds that induce readthrough of premature termination codons” (Bioorg Med Chem Lett, 2011)
Activity calls are given as the source filed them. The calls are words filed in the database; no cut-off is given here.

Experiments:
[1] = target: T1, 80S Ribosome (Homo sapiens) (UniProt P08865+P42677+P62753+P15880+P23396+P61247+P62701+P22090+P46782+P62081+P62241+P46781+P46783+P62280+P25398+P62277+P62263+P62841+P62244+P62249+P08708+P62269+P39019+P60866+P63220+P62266+P62847+P62851+P62854+P62979+P62857+P62273+P62861+P39023+P36578+P46777+Q02878+P18124+P62424+P62917+P32969+P27635+P62906+P62913+P30050+P26373+P40429+P50914+P61313+P18621+Q07020+Q02543+P84098+P46778+P35268+P62829+P62750+P83731+P61254+P61353+P46776+P46779+P47914+P62888+P62899+P62910+P49207+P42766+P18077+Q9Y3U8+P83881+P61927+P61513+P63173+P62891+P62945+P05388+P05386); experiment: Induction of ribosome to readthrough in human A-T lymphoblastoid cells assessed as ATM ser1981 autophosphorylation at 30 uM after 4 days by PTT-ELISA assay; format: subcellular
[2] = target: T1, 80S Ribosome (Homo sapiens); experiment: Induction of ribosome to readthrough in human A-T lymphoblastoid cells assessed as irradiation-induced ATM Ser1981 nuclear foci formation at 30 uM after 4 days by PTT-ELISA; format: subcellular

Row | Structure (SMILES) | Flu intensity [1] | Activity [2]
1 | O=C1NC(=S)S/C1=C\c1ccc(-c2ccccc2F)o1 | 2.86 | 
2 | O=C1NC(=S)S/C1=C\c1c[nH]c2ccccc12 | inactive | 
3 | COc1ccccc1-c1ccc(/C=C2\SC(=S)NC2=O)o1 | inactive | 
4 | CN1C(=N)S/C(=C\c2ccc(-c3ccccc3[N+](=O)[O-])o2)C1=O | inactive | 
5 | Nc1nc(=O)n(Cc2ccc(-c3ccccc3[N+](=O)[O-])o2)cc1F | inactive | inactive
6 | COc1cccc(-c2ccc(/C=C3\SC(=N)NC3=O)o2)c1 | 1.9 | 
7 | N=C1NC(=O)/C(=C/c2cc3ccccc3o2)S1 | inactive | 
8 | O=C1NC(=S)S/C1=C\c1ccc(-c2ccccc2Cl)o1 | 3.55 | 
9 | Cc1cn(Cc2ccc(-c3ccccc3[N+](=O)[O-])o2)c(=O)[nH]c1=O | inactive | inactive
10 | N=C1NC(=O)/C(=C/c2ccc(-c3ccccn3)o2)S1 | inactive | 
11 | N=C1NC(=O)/C(=C/c2cc3ccccc3[nH]2)S1 | inactive | 
12 | N=C1NC(=O)/C(=C/c2cn(Cc3ccc(-c4ccccc4[N+](=O)[O-])o3)c(=O)[nH]c2=O)S1 | 2.42 | 18%
13 | O=C1NC(=S)S/C1=C\c1cc2ccccc2[nH]1 | inactive | 
14 | O=C1NC(=S)S/C1=C\c1ccc(-c2ccccc2[N+](=O)[O-])o1 | inactive | 
15 | O=c1ccn(Cc2ccc(-c3ccccc3)o2)c(=O)[nH]1 | 3.42 | 9.4%
16 | N=C1NC(=O)/C(=C/c2ccc(-c3ccccc3)o2)S1 | inactive | 
17 | Cc1cn(Cc2ccc(-c3ccccc3F)o2)c(=O)[nH]c1=O | 6.16 | 9.6%
18 | O=C1NC(=S)S/C1=C\c1ccc(-c2cccc(F)c2)o1 | 3.44 | 
19 | N=C1NC(=O)/C(=C/c2c[nH]c3ccccc23)S1 | inactive | 
20 | N=C1NC(=O)/C(=C/c2ccco2)S1 | inactive | 
21 | COc1ccccc1-c1ccc(/C=C2\SC(=N)NC2=O)o1 | inactive | 

Row | Structure (SMILES) | Flu intensity [1] | Activity [2]
22 | N=C1NC(=O)/C(=C/c2ccc(-c3cccc(Cl)c3)o2)S1 | 2.27 | 
23 | O=Cc1cn(Cc2ccc(-c3ccccc3[N+](=O)[O-])o2)c(=O)[nH]c1=O | 2.24 | 16%
24 | O=c1ccn(Cc2ccc(-c3cccc(Cl)c3)o2)c(=O)[nH]1 | 5.07 | 11.3%
25 | N=C1NC(=O)/C(=C/c2ccc(-c3ccccc3Cl)o2)S1 | inactive | 
26 | O=C1NC(=S)S/C1=C\c1ccc(-c2ccccn2)o1 | inactive | 
27 | O=C1NC(=S)S/C1=C\c1cc2ccccc2o1 | 3.5 | 
28 | N=C1NC(=O)/C(=C/c2ccc(-c3cccc(F)c3)o2)S1 | inactive | 
29 | N=C1NC(=O)/C(=C/c2ccc(-c3ccccc3[N+](=O)[O-])o2)S1 | 3.27 | 
30 | Nc1ccn(Cc2ccc(-c3ccccc3[N+](=O)[O-])o2)c(=O)n1 | inactive | inactive
31 | N=C1NC(=O)/C(=C/c2ccc(-c3ccccc3F)o2)S1 | inactive | 
32 | N=C1NC(=O)/C(=C/c2ccc(-c3ccccc3)s2)S1 | inactive | 
33 | O=c1ccn(Cc2ccc(-c3ccccc3[N+](=O)[O-])o2)c(=O)[nH]1 | 4.94 | 10.7%
34 | N=C1NC(=O)/C(=C/c2c[nH]c(=O)[nH]c2=O)S1 | 5.32 | 17%
35 | COc1cccc(-c2ccc(/C=C3\SC(=S)NC3=O)o2)c1 | 2.66 | 
36 | Cc1cn(Cc2ccc(-c3ccccc3)o2)c(=O)[nH]c1=O | 3.8 | 22.8%
37 | O=C1NC(=S)S/C1=C\c1ccc(-c2ccccc2C(F)(F)F)o1 | inactive | 
38 | N=C1NC(=O)/C(=C/c2ccc(-c3ccccc3C(F)(F)F)o2)S1 | inactive | 
39 | O=c1[nH]c(=O)n(Cc2ccc(-c3ccccc3[N+](=O)[O-])o2)cc1F | 2.08 | 14.5%
40 | O=C1NC(=S)S/C1=C\c1ccc(-c2cccc(Cl)c2)o1 | 2.86 | 
41 | O=c1ccn(Cc2ccc(-c3ccccc3F)o2)c(=O)[nH]1 | 5.43 | 20%
